In US20080311126A1, “Antisense Oligonucleotides Directed to Ribonucleotide Reducatase R2 and Uses Thereof in Combination Therapies for the Treatment of Cancer” (Genesense Technologies, Inc, priority 2004, published 2008):
“Also recorded” adds a separate entry of the source.

Key:
Erythroleukemia = experiment: Survival assay, erythroleukemia in mice; assay type: in vivo, murine
Description: For the study of the effect of the compositions on leukaemias, the animals are grafted with a particular number of cells, and the anti-tumour activity is determined by the increase in the survival time of the treated mice relative to the controls.

[1] = system: Human Breast Adenocarcinoma; experiment: Tumour growth assay, human breast adenocarcinoma in mice; assay type: in vivo
A549 lung cell carcinoma = experiment: Relative colony forming efficiency (Example 17, Table 13); assay type: cell-based, human; details: averages of 2-8 determinations
In short: (§1)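 Antisense phosphorothioates are tested at 0.2 μM unless stated, transfected with DOTMA/DOPE (2.5 μg) for four hours. Colony counts after methylene blue staining give percent inhibition versus vehicle-lipid controls.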

[2] = system: T-47D breast ductal carcinoma; experiment: as above; assay type: cell-based, human; details: averages of 2-8 determinations
In short: as §1

[3] = system: T24 bladder cell carcinoma; experiment: as above; assay type: cell-based, human; details: averages of 2-8 determinations
In short: as §1

[4] = system: PC-3 prostrate cell adenocarcinoma; experiment: as above; assay type: cell-based, human; details: averages of 2-8 determinations
In short: as §1

[5] = system: HepG2 hepatocellular carcinoma; experiment: as above; assay type: cell-based, human; details: averages of 2-8 determinations
In short: as §1

[6] = system: MDA-MB-231 breast cell adenocarcinoma; experiment: as above; assay type: cell-based, human; details: averages of 2-8 determinations
In short: as §1

[7] = system: MDA PaCa-2 pancreatic cell carcinoma; experiment: as above; assay type: cell-based, human; details: MIA PaCa-2 pancreatic cell carcinoma; averages of 2-8 determinations
In short: as §1

[8] = system: HCT116 colon cell carcinoma; experiment: as above; assay type: cell-based, human; details: averages of 2-8 determinations
In short: as §1

[9] = system: LS513 multi-drug resistant colon carcinoma cells; experiment: LS513 multi-drug resistant colon carcinoma xenograft in SCID mice; assay type: in vivo, human
Description: LSS13 multi-drug resistant colon carcinoma cells (1×10^7 cells in 100 μl of PBS) were subcutaneously injected into the right flank of 6-7 weeks old female SCID mice. After the size of tumour reached an approximate volume of […], 8 days post tumour cell injection, SEQ ID NO:1 was administered by bolus infusion into the tail vein every other day at 10 mg/kg. Control animals received saline alone for the same period. Antitumour effect of SEQ ID NO:1 was further compared to that of CPT-11 alone or in combination. CPT-11 was administered i.p. for 5 days at a dose of 20 mg/kg/day. Antitumour activities were estimated by the inhibition of tumour volume, which was measured with caliper. Each point represents mean tumour volume calculated from 10 animals per experimental group. Tumour weights were measured after animals were sacrificed at the end of the treatment. These cells are not resistant to CPT-11 which was used as a positive control.

[10] = system: Human Ovary Adenocarcinoma; experiment: Tumour growth assay, human ovary adenocarcinoma in Balb/c Nu-Nu mice; assay type: in vivo
Human Cervical Carcinoma = experiment: Tumour growth assay, human cervical carcinoma in SCID mice; assay type: in vivo
[11] = system: MDA-MB-231 human breast cancer cells; experiment: MDA-MB-231 breast tumour xenograft in CD-1 nude mice; assay type: in vivo
Description: MDA-MB-231 human breast cancer cells (1×10^7 cells in 100 μl of PBS) were subcutaneously injected into the right flank of 6-7 weeks old female CD-1 nude mice. After the size of tumour reached an approximate volume of 100 mm^3, 5 days post tumour cell injection, SEQ ID NO:1, or the scrambled control oligonucleotide (SEQ ID NO:3) were administered by bolus infusion into the tail vein every other day at 10 mg/kg. Control animals received saline alone for the same period. Antitumour effect of SEQ ID NO:1 was further compared to that of taxol or doxorubicin alone or in combination. Taxol was administered intravenously once a week at a dose of 10 mg/kg for three (FIG. 17A) or four weeks (FIG. 17C). Doxorubicin was administered intravenously once a week at a dose of 5 mg/kg for first three weeks (FIG. 17A) or for two weeks (FIG. 17C). All treatments were stopped at day 33 (FIG. 17A) or at day 26 (FIG. 17C), respectively. A day after the last treatment, tumours were excised from the animals and their weights were measured. […] In FIG. 17C, antitumour activities were estimated by the inhibition of tumour volume, which was measured with calipers. Each point represents mean tumour volume calculated from 10 animals per experimental group.

Human Liver Carcinoma = experiment: Tumour growth assay, human liver carcinoma in CD-1 nude mice; assay type: in vivo
[12] = system: Human Glioblastoma-Astrocytoma; experiment: Tumour growth assay, human glioblastoma-astrocytoma in mice; assay type: in vivo
[13] = system: A2058 human melanoma cells; experiment: A2058 melanoma xenograft in CD-1 nude mice; assay type: in vivo
Description: A2058 human melanoma cells 1×10^7 cells in 100 μl of PBS) were subcutaneously injected into the right flank of 6-7 week old female CD-1 nude mice. A2058 is a metastatic melanoma cell line. After the size of tumour reached an approximate volume of 100 mm^3, 6 days post tumour cell injection, SEQ ID NO:1 was administered by bolus infusion into the tail vein every other day at 10 mg/kg. Control animals received saline alone for the same period. Antitumour effect of SEQ ID NO:1 was further compared to that of dacarbazine (DTIC) alone or that of SEQ ID NO:1 in combination with DTIC. DTIC was administered intravenously for 5 days in a row from day 6-10 at a dose of 80 mg/kg in 100 μl saline. All treatments were stopped at day 24. A day after the last treatment, tumours were excised from the animals and their weights were measured.

Human Melanoma = experiment: Tumour growth assay, human melanoma in mice; assay type: in vivo
[14] = Human Cervical Carcinoma^2 (second entry), SCID mice, Day 17 after tumour implantation

GGCTAAATCGCTCCACCAAG (chemistry not given here) [SEQ ID NO: 1, antisense oligonucleotide that hybridizes to the coding region of human ribonucleotide reductase R2 mRNA]
effect of treatment on survival (Erythroleukemia; Erythroleukemia): Treatment prolonged survival | survival of treated mice (Erythroleukemia; untreated died within 36 days, one treated mouse died at day 22): Treated mice survived beyond day 71 | Inhibition of tumour weight ([1]; Day 31 after tumour implantation): approximately 80% on Day 31 after | Inhibition of tumour size ([1]; Human Breast Adenocarcinoma): approximately 80% | Reduced relative colony forming efficiency, A549 (% inhibition of colony forming ability) (A549 lung cell carcinoma): 95.14% | Reduced relative colony forming efficiency, T-47D (% inhibition of colony forming ability) [2]: 66.12% | Reduced relative colony forming efficiency, T24 (% inhibition of colony forming ability) [3]: 76.79% | Reduced relative colony forming efficiency, PC-3 (% inhibition of colony forming ability) [4]: 83.23% | Reduced relative colony forming efficiency, HepG2 (% inhibition of colony forming ability) [5]: 75.89% | Reduced relative colony forming efficiency, MDA-MB-231 (% inhibition of colony forming ability) [6]: 90.21% | Reduced relative colony forming efficiency, MIA PaCa-2 (% inhibition of colony forming ability) [7]: 75.62% | Reduced relative colony forming efficiency, HCT116 (% inhibition of colony forming ability) [8]: 70.46% | Tumour weight as % of saline control ([9]; LS513 (colon) multi-drug resistant (CPT-11 sensitive), SCID): 49% | antitumour effect (tumour volume, tumour weight) ([9]; SEQ ID NO:1 10 mg/kg every other day, CPT-11 20 mg/kg/day i.p. 5 days): significant delay of tumour growth; also recorded: as effective as CPT-11 | Inhibition of tumour size ([10]; Balb/c Nu-Nu mice, Days 19 to 25 after tumour implantation): approximately 35% in Balb/c Nu-Nu | Inhibition of tumour weight ([10]; Human Ovary Adenocarcinoma): of approximately 50% | Inhibition of tumour weight (Human Cervical Carcinoma; Human Cervical Carcinoma^2 (first entry)): approximately 90% | Inhibition of tumour size (Human Cervical Carcinoma; [14]): approximately 60% in SCID mice on | Inhibition of tumour weight (Human Cervical Carcinoma; [14]): approximately 60% in SCID mice on | Tumour weight as % of saline control ([11]; MDA-MB-231 (breast), Mouse CD-1): 12.6% | antitumour effect (tumour weight, tumour volume) ([11]; oligonucleotide 10 mg/kg every other day i.v., taxol 10 mg/kg, doxorubicin 5 mg/kg i.v. once a week): delay of tumour growth compared to saline control in all three experiments; also recorded: superior to the inhibitory effects observed with taxol or doxorubicin alone | Inhibition of tumour weight (Human Liver Carcinoma): approximately 65% | Inhibition of tumour weight [12]: approximately 65% | Tumour weight as % of saline control ([13]; A2058 (melanoma), Mouse CD-1): 20% | antitumour effect (tumour weight) ([13]; SEQ ID NO:1 10 mg/kg every other day i.v., DTIC 80 mg/kg i.v. 5 days): significant delay of tumour growth; also recorded: superior to the inhibitory effects observed with DTIC alone | Inhibition of tumour weight (Human Melanoma): approximately 80%
